The values below come from US20140329681A1, “METHOD FOR CONTROLLING WEEDS IN SUGAR CANE FIELD” (SUMITOMO CHEMICAL COMPANY, LIMITED, priority 2011, published 2014).

For one series, the system named is sugar cane. Description: Pot test, herbicide sprayed on the soil surface after planting one-node stem cuttings: phytotoxicity. Here is the method:
(§1) Stem cuttings of sugar cane, 30 cm to 40 cm long, are placed in wet soil to stimulate germination. Stem cuttings on which a bud grows to about 1 cm long are selected and the stem cuttings are cut to have one node and a length of 3 cm. Plastic pots are filled with soil and Amaranthus retroflexus is seeded therein. The stem cuttings of sugar cane are planted in the soil in the pots at a depth of 2 cm. […] The test pots are then placed in a greenhouse.
(§2) The herbicidal efficacy and phytotoxicity are determined four weeks after the application of the herbicides.
as §1, with “3 cm. The stem cuttings are treated with clothianidin, thiamethoxam, imidacloprid, dinotefuran, nitenpyram, acetamiprid, or thiacloprid. Plastic pots” for “3 cm. Plastic pots”, “sugar cane treated with the pesticides are planted” for “sugar cane are planted”
(§3) Stem cuttings of sugar cane, 30 cm to 40 cm long, are placed in wet soil to stimulate germination. Stem cuttings on which a bud grows to about 1 cm long are selected and the stem cuttings are cut to have one node and a length of 3 cm. The stem cuttings are treated with kresoxim-methyl, azoxystrobin, trifloxystrobin, fluoxastrobin, picoxystrobin, pyraclostrobin, dimoxystrobin, pyribencarb, metominostrobin, orysastrobin, enestrobin, pyraoxystrobin, or pyrametostrobin. Plastic pots are filled with soil and Amaranthus retroflexus is seeded therein. The stem cuttings of sugar cane treated with the fungicides are planted in the soil in the pots at a depth of 2 cm. […] The test pots are then placed in a greenhouse. The herbicidal efficacy and phytotoxicity are determined four weeks after the application of the herbicides.
(§4) Stem cuttings of sugar cane, 30 cm to 40 cm long, are placed in wet soil to stimulate germination. Stem cuttings on which a bud grows to about 1 cm long are selected and the stem cuttings are cut to have one node and a length of 3 cm. The stem cuttings are treated with azaconazole, bitertanol, bromuconazole, cyproconazole, difenoconazole, diniconazole, epoxiconazole, fenbuconazole, fluquinoconazole, flusilazole, flutriafol, hexaconazole, imibenconazole, ipconazole, metconazole, myclobutanil, penconazole, propiconazole, prothioconazole, simeconazole, tebuconazole, tetraconazole, triadimenol, triticonazole, fenarimol, nuarimol, pyrifenox, imazalil, oxpoconazole fumarate, peforazoate, prochloraz, or triflumizole. Plastic pots are filled with soil and Amaranthus retroflexus is seeded therein. The stem cuttings of sugar cane treated with the fungicides are planted in the soil in the pots at a depth of 2 cm. […] The test pots are then placed in a greenhouse.
(§5) Stem cuttings of sugar cane, 30 cm to 40 cm long, are placed in wet soil to stimulate germination. Stem cuttings on which a bud grows to about 1 cm long are selected and the stem cuttings are cut to have one node and a length of 3 cm. The stem cuttings are treated with metalaxyl or metalaxyl-M. Plastic pots are filled with soil and Amaranthus retroflexus is seeded therein. The stem cuttings of sugar cane are planted in the soil in the pots at a depth of 2 cm. […] The test pots are then placed in a greenhouse.

The subject of another series is Amaranthus retroflexus. Description: Pot test, herbicide sprayed on the soil surface after planting one-node stem cuttings: herbicidal efficacy. The format is in vivo. Particulars: Example 5; cuttings treated with strobilurin fungicides (kresoxim-methyl, azoxystrobin etc.); soil surface spray on day of planting; four weeks after application. Here is the method: as §1, §2
as §5, with “treated with clothianidin, thiamethoxam, imidacloprid, dinotefuran, nitenpyram, acetamiprid, or thiacloprid.” for “treated with metalaxyl or metalaxyl-M.”, “acetamiprid, or thiacloprid. Plastic pots” for “metalaxyl or metalaxyl-M. Plastic pots”, “sugar cane treated with the pesticides are planted” for “sugar cane are planted”
as §3
as §4, with “greenhouse. […]” for “greenhouse.”

[1] abbreviates: Example 5, cuttings treated with strobilurin fungicides (kresoxim-methyl, azoxystrobin etc.), soil surface spray on day of planting, four weeks after application.

Turning to `CS(=O)(=O)c1cc(C(F)(F)F)ccc1C(=O)c1cnoc1C1CC1` [isoxaflutole], the phytotoxicity result in the series on sugar cane (in vivo) is given as “no phytotoxicity problematic to sugar cane is observed”. Also, the herbicidal efficacy entry in the series on Amaranthus retroflexus is given as “the control effect against the weed can be observed”. As to `CCc1cccc(CC)c1N(COC)C(=O)CCl` [alachlor], the phytotoxicity entry in the series with sugar cane (setting [1]) was “no phytotoxicity problematic to sugar cane is observed”. The herbicidal efficacy entry with Amaranthus retroflexus is “the control effect against the weed can be observed”. As to bicyclopyrone, the phytotoxicity entry in the series with sugar cane (setting [1]) was “no phytotoxicity problematic to sugar cane is observed”. Further, the herbicidal efficacy entry with Amaranthus retroflexus is “the control effect against the weed can be observed”. Regarding `CSc1nnc(C(C)(C)C)c(=O)n1N` [metribuzin], in the series with sugar cane (setting [1]), the phytotoxicity result was “no phytotoxicity problematic to sugar cane is observed”. In addition, in the series with Amaranthus retroflexus, the herbicidal efficacy result is “the control effect against the weed can be observed”.

For the compound `CC(C)c1nn(C(=O)NC(C)(C)C)c(=O)n1N` [amicarbazone], the phytotoxicity entry in the series on sugar cane (setting [1]) is “no phytotoxicity problematic to sugar cane is observed”. Also, the herbicidal efficacy entry in the series with Amaranthus retroflexus is given as “the control effect against the weed can be observed”. For the compound `CN(C)c1nc(=O)n(C2CCCCC2)c(=O)n1C` [hexazinone], the phytotoxicity entry in the series on sugar cane (in vivo) is listed as “no phytotoxicity problematic to sugar cane is observed”. Also, in the series with Amaranthus retroflexus, the herbicidal efficacy entry is “the control effect against the weed can be observed”.

As for `COC(=O)c1c(Cl)nn(C)c1S(=O)(=O)NC(=O)Nc1nc(OC)cc(OC)n1` [halosulfuron-methyl], the phytotoxicity result in the series with sugar cane (setting [1]) was “no phytotoxicity problematic to sugar cane is observed”. Besides, the herbicidal efficacy result with Amaranthus retroflexus was “the control effect against the weed can be observed”. Consider `CNC.COc1c(Cl)ccc(Cl)c1C(=O)O` [dicamba-dimethylamine], for which the phytotoxicity entry in the series with sugar cane (setting [1]) is “no phytotoxicity problematic to sugar cane is observed”. For the same compound, in the series with Amaranthus retroflexus, the herbicidal efficacy result was “the control effect against the weed can be observed”. Taken in the same sequence, the figures for `CCCN(CCC)c1c([N+](=O)[O-])cc(C(F)(F)F)cc1[N+](=O)[O-]` [trifluralin] were “no phytotoxicity problematic to sugar cane is observed” and “the control effect against the weed can be observed”. For `CCOc1ccccc1OS(=O)(=O)NC(=O)Nc1nc(OC)cc(OC)n1` [ethoxysulfuron], in the series with sugar cane (in vivo), the phytotoxicity entry is listed as “no phytotoxicity problematic to sugar cane is observed”. The herbicidal efficacy entry in the series on Amaranthus retroflexus was “the control effect against the weed can be observed”. Taken in the same sequence, the figures for `CCNc1nc(NC(C)C)nc(SC)n1` [ametryn] were “no phytotoxicity problematic to sugar cane is observed” and “the control effect against the weed can be observed”. Turning to `COc1c(Cl)ccc(Cl)c1C(=O)[O-].[K+]` [dicamba-potassium], in the series with sugar cane (setting [1]), the phytotoxicity result is listed as “no phytotoxicity problematic to sugar cane is observed”. Further, the herbicidal efficacy result with Amaranthus retroflexus is given as “the control effect against the weed can be observed”. The corresponding values for `COc1c(Cl)ccc(Cl)c1C(=O)[O-].[Na+]` [dicamba-sodium] are “no phytotoxicity problematic to sugar cane is observed” and “the control effect against the weed can be observed”. The corresponding values for `COC(=O)c1ccc(I)cc1S(=O)(=O)[N-]C(=O)Nc1nc(C)nc(OC)n1.[Na+]` [iodosulfuron-methyl-sodium] are “no phytotoxicity problematic to sugar cane is observed” and “the control effect against the weed can be observed”. For the compound `CN(C)C(=O)Nc1ccc(Cl)c(Cl)c1` [diuron], the phytotoxicity entry in the series on sugar cane (setting [1]) is “no phytotoxicity problematic to sugar cane is observed”. For the same compound, in the series on Amaranthus retroflexus, the herbicidal efficacy entry was “the control effect against the weed can be observed”. For the compound `CCNc1nc(Cl)nc(NC(C)C)n1` [atrazine], in the series with sugar cane (setting [1]), the phytotoxicity entry is “no phytotoxicity problematic to sugar cane is observed”. Moreover, the herbicidal efficacy result with Amaranthus retroflexus was “the control effect against the weed can be observed”. Turning to `CCNc1nc(Cl)nc(NCC)n1` [simazine], the phytotoxicity result in the series with sugar cane (setting [1]) is given as “no phytotoxicity problematic to sugar cane is observed”. In addition, the herbicidal efficacy result in the series with Amaranthus retroflexus is reported as “the control effect against the weed can be observed”. In the case of `CNC(=O)N(C)c1nnc(C(C)(C)C)s1` [tebuthiuron], the phytotoxicity result in the series on sugar cane (setting [1]) was “no phytotoxicity problematic to sugar cane is observed”. In the series on Amaranthus retroflexus, the herbicidal efficacy entry is on record as “the control effect against the weed can be observed”. For `COc1c(Cl)ccc(Cl)c1C(=O)O` [dicamba], the phytotoxicity entry in the series on sugar cane (setting [1]) is recorded as “no phytotoxicity problematic to sugar cane is observed”. The herbicidal efficacy result with Amaranthus retroflexus is “the control effect against the weed can be observed”.

For the compound `COc1c(Cl)ccc(Cl)c1C(=O)O.NCCOCCO` [dicamba-diglycolamine], the phytotoxicity entry in the series on sugar cane (setting [1]) is recorded as “no phytotoxicity problematic to sugar cane is observed”. The herbicidal efficacy entry in the series with Amaranthus retroflexus is “the control effect against the weed can be observed”.

Take `Cc1cnc(C2=NC(=O)C(C)(C(C)C)N2)c(C(=O)O)c1` (centres unmarked) [imazapic]: the phytotoxicity result in the series with sugar cane (in vivo) is given as “no phytotoxicity problematic to sugar cane is observed”. Moreover, in the series on Amaranthus retroflexus, the herbicidal efficacy result is “the control effect against the weed can be observed”.

With `COc1cc(OC)nc(NC(=O)[N-]S(=O)(=O)c2ncccc2OCC(F)(F)F)n1.[Na+]` [trifloxysulfuron-sodium], the phytotoxicity result with sugar cane (setting [1]) is reported as “no phytotoxicity problematic to sugar cane is observed”. In addition, the herbicidal efficacy result with Amaranthus retroflexus is reported as “the control effect against the weed can be observed”. For `CCC(CC)Nc1c([N+](=O)[O-])cc(C)c(C)c1[N+](=O)[O-]` [pendimethalin], in the series on sugar cane (setting [1]), the phytotoxicity entry is “no phytotoxicity problematic to sugar cane is observed”. The herbicidal efficacy result in the series on Amaranthus retroflexus is recorded as “the control effect against the weed can be observed”.

On to `CCc1cccc(C)c1N(C(=O)CCl)[C@@H](C)COC` [S-metolachlor], for which the phytotoxicity result with sugar cane (setting [1]) is “no phytotoxicity problematic to sugar cane is observed”. Further, the herbicidal efficacy result in the series with Amaranthus retroflexus was “the control effect against the weed can be observed”. Regarding `CCc1cccc(C)c1N(C(=O)CCl)C(C)COC` (centres unmarked) [metolachlor], the phytotoxicity result in the series with sugar cane (setting [1]) is “no phytotoxicity problematic to sugar cane is observed”. In the series on Amaranthus retroflexus, the herbicidal efficacy entry is “the control effect against the weed can be observed”.

Take `CC1(C)CON(Cc2ccccc2Cl)C1=O` [clomazon]: the herbicidal efficacy entry in the series with Amaranthus retroflexus was “the control effect against the weed can be observed”. Consider `CS(=O)(=O)c1ccc(C(=O)C2C(=O)CCCC2=O)c([N+](=O)[O-])c1` [mesotrione], for which, in the series on sugar cane (setting [1]), the phytotoxicity entry is reported as “no phytotoxicity problematic to sugar cane is observed”. Besides, the herbicidal efficacy entry in the series on Amaranthus retroflexus is reported as “the control effect against the weed can be observed”.
